Key:
Format in all cases: cell-based
P. aeruginosa PAO1 [1] = experiment: Antibacterial activity in combination with minocycline (growth inhibition); settings: Pseudomonas aeruginosa, PAO1, compound at 50 μM; minocycline 8 μg/mL; OD625 23 h minus 1 h; read-out: residual growth of P. aeruginosa PAO1 (% of uninhibited control) with minocycline
Outline: (§1)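 Test compound combined with fixed subinhibitory partner antibiotic: linezolid 128 μg/mL for either strain, minocycline 0.25 μg/mL (E. coli) or 8 μg/mL (P. aeruginosa), in caMHB shaken at 37 °C. Residual growth as % of inhibitor-free control, from OD625 at 23 h minus 1 h.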

E. coli ATCC25922 [2] = experiment: Antibacterial activity in combination with linezolid (growth inhibition); settings: Escherichia coli, ATCC25922, compound at 50 μM; linezolid 128 μg/mL; OD625 23 h minus 1 h; read-out: residual growth of E. coli ATCC25922 (% of uninhibited control) with linezolid
Method: (§2) Antibacterial activity in combination with minocycline or with linezolid
(§3) Inhibition of growth was measured with E. coli ATCC25922 and P. aeruginosa PAO1 in a 96-well plate format. Cation-adjusted Müller-Hinton broth (caMHB) was inoculated with an overnight culture and incubated at 37° C. on a shaker until OD625 reached 0.6 to 0.7. Density was adjusted to OD600=0.5 by addition of caMHB. 35 μL of the suspension were diluted to 35 mL with caMHB and supplemented with minocycline at the subinhibitory doses of 0.25 μg/mL for E. coli and 8 μg/mL for P. aeruginosa or with linezolid at the subinhibitory dose of 128 μg/mL for E. coli and P. aeruginosa. Each well contained 1 μL of test compound in 100 μL caMHB with minocycline or with linezolid.
(§4) Plates were incubated at 37° C. on a plate shaker. OD625 was measured at 1 h, 6 h, and at 23 h.
(§5) The difference between OD at 23 h and at 1 h was taken as measure for cell density and compared to controls without inhibitor (i.e. uninhibited control). Results were expressed as residual growth (% of uninhibited control). Enhancement of minocycline or linezolid activity caused reduced residual growth.

E. coli ATCC25922 [3] = experiment: Antibacterial activity in combination with minocycline (growth inhibition); settings: Escherichia coli, minocycline 0.25 μg/mL, OD625 23 h minus 1 h, read-out: residual growth of E. coli ATCC25922 (% of uninhibited control) with minocycline; for activity at 25 µM: ATCC25922, compound at 25 μM
Outline: as §1

P. aeruginosa PAO1 [4] = experiment: Antibacterial activity in combination with linezolid (growth inhibition); settings: Pseudomonas aeruginosa, PAO1, compound at 50 μM; linezolid 128 μg/mL; OD625 23 h minus 1 h; read-out: residual growth of P. aeruginosa PAO1 (% of uninhibited control) with linezolid
Method: as §2, §3, §4, §5

SMILES	activity at 50 µM (E. coli ATCC25922 [2]) [%]	activity at 25 µM (E. coli ATCC25922 [3]) [%]	activity at 50 µM (P. aeruginosa PAO1 [4]) [%]	also measured
Clc1ccccc1COc1ccc(CNCC2CCNCC2)cc1 [Example 1]	≤ 50	–	–	activity at 50 µM (P. aeruginosa PAO1 [1]): ≤ 50%
Clc1ccc(COc2ccc(CNCC3CNC3)cc2)c(Br)c1 [Example 36]	–	≤ 10	≤ 50	–
Brc1ncccc1COc1cccc(CNCC2CNC2)c1 [Example 48]	≤ 50	–	–	–
Clc1ccc(COc2ccc(CNCC3CCNC3)cc2)c(Br)c1 (stereo not shown) [Example 63]	–	≤ 10	≤ 50	–
N#Cc1ccc(COc2ccc(CNCC3CNC3)cc2)cc1 [Example 76]	≤ 50	–	–	–
CS(=O)(=O)c1ccc(COc2ccc(CNCC3CNC3)cc2)c(Cl)c1 [Example 78]	≤ 50	–	–	–
Clc1ccc(COc2ccc(CCNCC3CNC3)cc2)c(Br)c1 [Example 100]	≤ 50	≤ 10	–	–
O=C(O)c1cc(CNCC2CNC2)cc(OCc2ccc(Cl)cc2Br)c1 [Example 110]	≤ 50	–	–	–
O=C(CNCC1CCNC1)c1cccc(OCc2ccc(Cl)cc2Br)c1 (stereo not shown) [Example 143]	≤ 50	–	–	–
O=C(Nc1ccc(CNCC2CCNC2)cc1Cl)c1ccc(C(F)(F)F)cc1C(F)(F)F (stereo not shown) [Example 160]	≤ 50	–	–	–
O=C(Nc1ccc(CNCC2CNC2)cc1Cl)c1ccc(Cl)cc1C(F)(F)F [Example 161]	≤ 50	–	–	–
Clc1ccc(COc2cc(CNCC3CNC3)cc(OCC3CC3)c2)c(Cl)c1 [Example 166]	–	≤ 10	≤ 50	–
CC(C)Oc1cc(C[N+](C)(C)CC2CCNC2)cc(OCc2ccc(Cl)cc2Br)c1 (stereo not shown) [Example 167]	–	≤ 10	≤ 50	–
NCC1CCC(CNCc2cccc(OCc3ccc(Cl)cc3Br)c2)N1 (stereo not shown) [Example 192]	–	≤ 10	≤ 50	activity at 50 µM (P. aeruginosa PAO1 [1]): ≤ 50%
C[N+](C)(CC(=O)O)Cc1cc(CNCC2CNC2)cc(OCc2ccc(Cl)cc2Br)c1 [Example 232]	≤ 50	–	–	–
CN(CC(=O)O)Cc1cc(CNCC2CNC2)cc(OCc2ccc(Cl)cc2Br)c1 [Example 244]	≤ 50	–	–	–
Clc1ccc(COc2cc(CNCC3CCNC3)cc(OCCc3c[nH]cn3)c2)c(Br)c1 (stereo not shown) [Example 251]	–	≤ 10	≤ 50	–
CC(C)(C)c1ccc(COc2cc(CNCC3CNC3)cc(C(F)(F)F)c2)cc1 [Example 273]	–	≤ 10	≤ 50	–
C=CCOc1cc(/C=C/c2cccc(C#N)c2)cc(CNCC2CCNC2)c1 (stereo not shown) [Example 305]	–	≤ 10	≤ 50	–
C=CCOc1cc(/C=C/c2ccsc2)cc(CNCC2CCNC2)c1 (stereo not shown) [Example 320]	–	≤ 10	–	activity at 50 µM (P. aeruginosa PAO1 [1]): ≤ 50%
C=CCOc1cc(/C=C/c2ccc(OC)cc2OC)cc(CNCC2CNC2)c1 [Example 323]	–	≤ 10	–	activity at 50 µM (P. aeruginosa PAO1 [1]): ≤ 50%
CC(C)COc1cc(/C=C/c2cccc(C(N)=O)c2)cc(CNCC2CCNC2)c1 (stereo not shown) [Example 331]	–	≤ 10	–	activity at 50 µM (P. aeruginosa PAO1 [1]): ≤ 50%
CC(C)COc1cc(/C=C/c2cccnc2)cc(CNCC2CCNC2)c1 (stereo not shown) [Example 332]	–	≤ 10	≤ 50	activity at 50 µM (P. aeruginosa PAO1 [1]): ≤ 50%

SMILES	activity at 50 µM (E. coli ATCC25922 [2]) [%]	activity at 25 µM (E. coli ATCC25922 [3]) [%]	activity at 50 µM (P. aeruginosa PAO1 [4]) [%]	also measured
CC(C)COc1cc(/C=C/c2ccc(C(N)=O)cc2)cc(CNCC2CCNC2)c1 (stereo not shown) [Example 337]	–	≤ 10	≤ 50	–
C=CCOc1cc(/C=C/c2nc(C(C)C)cs2)cc(CNCC2CCNC2)c1 (stereo not shown) [Example 353]	–	≤ 10	–	activity at 50 µM (P. aeruginosa PAO1 [1]): ≤ 50%
C=CCOc1cc(/C=C/c2ccc(Cl)cc2Br)cc(CNC(=O)[C@H]2CCNC2)c1 [Example 366]	–	≤ 10	–	activity at 50 µM (P. aeruginosa PAO1 [1]): ≤ 50%
C[N+](C)(Cc1cc(OCCc2c[nH]cn2)cc(OCc2ccc(Cl)cc2Br)c1)CC1CNC1 [Example 389]	–	≤ 10	≤ 50	–
C[N+](C)(Cc1cc(OCCc2c[nH]cn2)cc(OCc2ccc(Cl)cc2Br)c1)CC1CCNC1 (stereo not shown) [Example 404]	–	≤ 10	≤ 50	–
c1cncc(COc2cc(CNCC3CCNC3)cc(OCCc3ccncc3)c2)c1 (stereo not shown) [Example 427]	≤ 50	–	–	–
c1cncc(COc2cc(CNCC3CNC3)cc(OCCN3CCOCC3)c2)c1 [Example 428]	≤ 50	–	–	–
CC(C)COc1ccc(/C=C/c2ccc(Cl)cc2Br)cc1CNCC1CNC1 [Example 432]	–	≤ 10	≤ 50	–
C(=C\c1cc(CNCC2CNC2)cc(OCCN2CCOCC2)c1)/c1cccnc1 [Example 442]	≤ 50	–	–	–
C=CCOc1cc(/C=C/c2ccc(Cl)cc2Br)cc(C(=O)NCC(=O)NCC2CNC2)c1 [Example 445]	–	≤ 10	–	activity at 50 µM (P. aeruginosa PAO1 [1]): ≤ 50%
C=CCOc1cc(/C=C/c2ccc(Cl)cc2Br)cc(C(=O)NCCN(CC2CNC2)CC2CNC2)c1 [Example 447]	≤ 50	≤ 10	–	–
C=CCOc1cc(/C=C/c2cncc(C(=O)O)c2)cc(CNCC2CCNC2)c1 (stereo not shown) [Example 449]	≤ 50	–	–	–
C=CCOc1cc(/C=C/c2ccc(Cl)cc2Br)cc(C(=O)NCCNC(=O)C2CNC2)c1 [Example 454]	–	≤ 10	≤ 50	–
C=CCOc1cc(/C=C/c2cncc(C(=O)N(C)C)c2)cc(CNCC2CCNC2)c1 (stereo not shown) [Example 467]	–	–	≤ 50	activity at 50 µM (P. aeruginosa PAO1 [1]): ≤ 50%
C=CCOc1cc(/C=C/c2ccc(N)cc2)nc(CNCC2CCNC2)c1 (stereo not shown) [Example 475]	–	–	–	activity at 50 µM (P. aeruginosa PAO1 [1]): ≤ 50%; activity at 50 µM (E. coli ATCC25922 [3]; ATCC25922, compound at 50 μM): ≤ 50%
N#Cc1cncc(/C=C/c2cc(OCc3ccccn3)cc(CNCC3CCNC3)n2)c1 (stereo not shown) [Example 482]	≤ 50	–	–	–
N#Cc1cncc(/C=C/c2cc(CNCC3CCNC3)cc(OCCN3CCOCC3)c2)c1 (stereo not shown) [Example 484, 5-[(E)-2-[3-(2-morpholinoethoxy)-5-[(pyrrolidin-3-ylmethylamino)methyl]phenyl]vinyl]pyridine-3-carbonitrile]	≤ 50	–	–	–
N#Cc1cncc(/C=C/c2cc(CNCC3CCNC3)cc(OCc3n[nH]c(=O)o3)c2)c1 (stereo not shown) [Example 491, 5-[(E)-2-[3-[(2-oxo-3H-1,3,4-oxadiazol-5-yl)methoxy]-5-[(pyrrolidin-3-ylmethylamino)methyl]phenyl]vinyl]pyridine-3-carbonitrile]	≤ 50	–	–	–
Oc1ncc(/C=C/c2ccc(Cl)cc2Br)cc1CNCC1CCNC1 (stereo not shown) [Example 494, 5-[(E)-2-(2-bromo-4-chloro-phenyl)vinyl]-3-[(pyrrolidin-3-ylmethylamino)methyl]pyridin-2-ol]	–	≤ 10	≤ 50	–
CC(C)COc1cc(CNCC2CCNC2)cc(S(=O)(=O)Cc2cccnc2)c1 (stereo not shown) [Example 495]	≤ 50	–	–	–
CC(C)COc1cc(/C=C/c2cccnc2)cc(C(=O)CNCC2CCNC2)c1 (stereo not shown) [Example 502, 1-[3-isobutoxy-5-[(E)-2-(3-pyridyl)vinyl]phenyl]-2-(pyrrolidin-3-ylmethylamino)ethanone]	≤ 50	–	–	activity at 50 µM (P. aeruginosa PAO1 [1]): ≤ 50%
O=C(NCCN(CC1CNC1)CC1CNC1)c1cc(OCCc2ccncc2)cc(OCc2cccnc2)c1 [Example 506, N-[2-[bis(azetidin-3-ylmethyl)amino]ethyl]-3-[2-(4-pyridyl)ethoxy]-5-(3-pyridylmethoxy)benzamide]	≤ 50	–	–	–
O=C(NCCN(CC1CNC1)CC1CNC1)c1cc(CNC(=O)c2cccnc2)cc(OCCc2ccncc2)c1 [Example 507, N-[[3-[2-[bis(azetidin-3-ylmethyl)amino]ethylcarbamoyl]-5-[2-(4-pyridyl)ethoxyl]phenyl]methyl]pyridine-3-carboxamide]	≤ 50	–	–	activity at 50 µM (P. aeruginosa PAO1 [1]): ≤ 50%

— US10464896B2, “Efflux-pump inhibitors and therapeutic uses thereof” (Basilea Pharmaceutica International AG, priority 2015, dated 2019)
